The values that follow come from patent US20180230160A1, “2-AMINO-7A-PHENYL-3,4,4A,5,7,7A-HEXAHYDROFURO[3,4-B]PYRIDINES AS BACE1 INHIBITORS” (H. Lundbeck A/S, priority 2015, published 2018).

In series [1] the test system is P-gp (MDR1). Put plainly: MDCK-MDR1 assay (permeability, efflux ratio). The format is in vitro ADME. To be noted: dog, Papp BA/Papp AB, 60-minute incubation. As to the method:
The permeability of the test compounds was assessed in MDCK-MDR1 cells that were cultured to confluency (4-6 days) in a 96 transwell plate. Test compounds were diluted with the transport buffer (HBSS+1% BSA) to a concentration of 0.5 μM and applied to the apical or basolateral side of the cell monolayer. Permeation of the test compounds from A to B direction or B to A direction was determined in triplicate over a 60-minute incubation time at 37° C. and 5% CO2 with a relative humidity of 95%. Test compounds were quantified by LC-MS/MS analysis based on the peaks area ratios of analyte/IS in both the receiver and donor wells of the transwell plate. The apparent permeability coefficient Papp (cm/s) was calculated using the equation: […]
Where dCr/dt is the cumulative concentration of compound in the receiver chamber as a function of time (μM/s); Vr is the solution volume in the receiver chamber (0.05 mL on the apical side; 0.25 mL on the basolateral side); A is the surface area for the transport, i.e. 0.0804 cm^2 for the area of the monolayer; CO is the initial concentration in the donor chamber (μM).

In series [2] the target is human BACE1 (Homo sapiens, UniProt P56817). The series is described as follows: BACE1 binding assay (SPA-based radioligand binding). The arrangement: biotin (biotinylated form); made in house; host or cells: Freestyle HEK293 cells. To be noted: pH 4.5, 10 nM radioligand, Ki=IC50/(1+L/Kd). As to the method: The binding assay was performed as SPA-based assay using a biotinylated form of human BACE1 recombinantly expressed and subsequently purified from Freestyle HEK293 cells. The binding assay was run in a 50 mM sodium acetate buffer, pH 4.5 containing 50 mM NaCl and 0.03% Tween-20 in white clear bottom 384 plates (Corning #3653). 10 nM (final concentration) radioligand ([^3H]—N-((1S,2R)-1-benzyl-3-cyclopropylamino-2-hydroxy-propyl)-5-(methanesulfonyl-methyl-amino)-N—((R)-1-phenyl-ethyl)-isophthalamide) (TRQ11569 purchased from GE Healthcare) was mixed with test compound at a given concentration, 6 nM (final concentration) human BACE1 and 25 μg Streptavidin coated PVT core SPA beads (RPNQ0007, GE Healthcare Life Sciences) in a total volume of 40 μl. Several concentrations of each test compound were tested in the assay for […] determination. The plates were incubated for one hour at room temperature and counted in a Wallac Trilux counter. Total and non-specific binding were determined using buffer and 1 μM (final concentration) of the high affinity BACE1 reference inhibitor (S)-6-[3-chloro-5-(5-prop-1-ynyl-pyridin-3-yl)-thiophen-2-yl]-2-imino-3,6-dimethyl-tetrahydro-pyrimidin-4-one, respectively. For each test compound, a 1050 value (the concentration mediating 50% inhibition of the specific binding of the radioligand) was determined from concentration-response curve and used to calculate the Ki from the equation Ki=IC50/(1+L/Kd), where L and Kd are the final concentration of the radioligand used in the assay and the dissociation constant of the radioligand, respectively. The Kd of the radioligand was determined from saturation binding experiments.
Chain of human BACE1 (P56817 46-501): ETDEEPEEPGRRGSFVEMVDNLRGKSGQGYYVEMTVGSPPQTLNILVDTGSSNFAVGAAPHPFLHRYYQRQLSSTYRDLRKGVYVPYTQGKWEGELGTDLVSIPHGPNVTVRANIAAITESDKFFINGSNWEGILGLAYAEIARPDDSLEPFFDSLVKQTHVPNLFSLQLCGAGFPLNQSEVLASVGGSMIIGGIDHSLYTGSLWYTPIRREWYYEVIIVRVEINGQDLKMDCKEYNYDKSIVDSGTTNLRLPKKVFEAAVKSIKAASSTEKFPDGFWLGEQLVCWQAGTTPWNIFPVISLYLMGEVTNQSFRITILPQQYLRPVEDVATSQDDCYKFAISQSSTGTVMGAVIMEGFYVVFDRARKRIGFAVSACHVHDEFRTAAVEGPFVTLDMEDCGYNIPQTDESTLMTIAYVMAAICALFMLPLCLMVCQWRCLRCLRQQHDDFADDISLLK

Series [3] has as its system Aβ40 peptide. The series is described as follows: Assessment of Aβ peptide levels in rat brain and plasma following BACE1 inhibition (Aβ40 ELISA). Type of series: in vivo. The conditions noted are these: 3 hours post dose, vs vehicle. As to the method: Assessment of Aβ Peptide Levels in Rat Brain and Plasma Following BACE1 Inhibition. Animals.
(§1) Young adult Male Sprague Dawley rats of approximately 250 g weight were purchased from Charles River and received 0-30 mg/kg of vehicle (10% HP betaCD+1M MeSO4, pH 2.5) or test compounds (dissolved in vehicle) only by oral gavage (p.o). The compounds are dosed at a volume of 5 ml/kg. Cohorts of 5-10 animals were established for each treatment condition.
(§2) At T=180 minutes after initial dosing the animals were stunned and decapitated with a guillotine. Trunk-blood was sampled in EDTA coated tubes after decapitation of the animal. The blood was centrifuged at 2200G at 4° C. for 15 minutes and the plasma was collected and frozen at −80° C. The blood was aliquoted for Aβ ELISA and DMPK analysis. Immediately following sacrifice, the brain was extracted and split into 2 halves. The right hemibrains were snap frozen on dry ice and stored at −80° C. The left half was dissected; with the front forebrain taken for Aβ ELISA and the remainder used for DMPK analysis. These samples were also snap frozen on dry ice and stored at −80° C. until use for analysis.
The cortex samples were thawed slightly on wet ice before they were homogenized with a small volume dispersing instrument (T10 basic ULTRA-TURRAX®) which was set at speed 5 for approximately 5-7 sec. The tissue was processed in a 10 times volume of the weight, for example 100 mg of tissue was homogenized in 1000 μL of Homogenization buffer. Homogenization buffer: 50 ml Milli Q water+50 nM NaCl+0.2% Diethylamin (DEA)+1 tablet of Complete Protease inhibitor cocktail+1 nM 4-(2-aminoethyl) benzenesulfonyl fluoride hydrochloride irreversible serine protease inhibitor (AEBSF).
After homogenization 450 μL aliquots of the samples are collected into a 1.5 ml Eppendorf tube and placed on wet ice, 0.5% NP-40 (50 ul) was added to all samples and then they were incubated on ice for 30 min. After which all samples were sonicated using an Ultrasonic homogenizer with 20 kHz homogeneous sound (SONOPLUS HD2070, Bandelin Electronic) 10 pulse set at 12-13% power to extract all the Aβ species. The samples were then centrifuged (Ole Dich 157 MPRF Micro centrifuge) at 20000G for 20 minutes at 4° C. After centrifugation 285 μL of the supernatant was pipetted into 600 μL microtubes tubes and neutralized with 15 μL of 1M Tris-HCL buffer.
WAKO 294-62501 Human/Rat Abeta amyloid (40) kit was used for all ELISA analyses. 30 μL plasma samples or 30 μL of the cortex supernatants generated as described above were placed in 600 μL microtubes tubes on wet ice. To this 30 μL of 8M urea (AppliChem A1049, 9025) was added to generate a 2-fold dilution. Both plasma and cortex supernatants were incubated on ice for 30 min. Standard rows were prepared from the standard peptide stock provided in the kit and standard diluent containing 1.6M urea (200 μL 8M urea+800 μL of standard diluent) and 0.8M urea (400 μL 8M Urea+3600 μL Standard diluent). A serial 2-fold dilution of Aβ40 from 100 pmol/ml to 0 pmol/L was prepared for the assay.
After incubation with urea, all samples were further diluted by addition of 5 times standard diluent from the Kit. This was done by adding 240 μL Standard Diluent to 60 μL sample/urea mixture, which was then mixed well. 100 μL of each diluted sample was pipetted into designated wells of the ELISA plate in duplicates. The plate was then covered and incubated overnight at 4° C. The following day, the ELISA kit was brought to room temperature before use. The incubated plate was washed 5 times with the 20× washing solution diluted in Milli Q water. 100 μL HRP-conjugate was applied to each well, and the plate was covered and incubates at 4° C. for 1 hr. The wash was repeated again for 5 times. 100 μL 3,3′,5,5′-Tetramethylbenzidine (TMB) solution was applied to each well and the plate was covered and incubated in the dark at room temperature for 30 minutes. […]
A general note: In an ELISA, binding on a coated surface is turned into a signal by an enzyme label.

Series [4] is described as follows: Compound exposure in rat brain and plasma after oral dosing (DMPK analysis). The format is in vivo. The conditions noted are these: male, Sprague Dawley, 3 hours post dose; for concentration at 3 h: read-out: Exp (exposure); for Kp at 3 h: brain/plasma, read-out: Brain/Plasma ratio. As to the method: as §1, §2
The results of the administration of representative Compounds of Examples 1, 2, 5, […], of brain and plasma samples collected at 3 hours post dose and then following exposures, as described above, are tabulated below.

Read-outs that look alike come from different tables or passages of the source.

For orientation: efflux ratio means a quotient of directional permeabilities that is used to spot active efflux. For orientation: Ki means a dissociation constant, usually derived from enzyme kinetics or from competition with a known ligand.

For `Cc1nc(C(=O)Nc2ccc(F)c([C@]34COC[C@@]3(F)C[C@@](C)(F)C(N)=N4)c2)co1` [Example 10, N-(3-((3R,4aR,7aS)-2-amino-3,4a-difluoro-3-methyl-3,4,4a,5,7,7a-hexahydrofuro[3,4-b]pyridin-7a-yl)-4-fluorophenyl)-2-methyloxazole-4-carboxamide], the efflux ratio at 60 min, 0.5 μM in series [1] amounted to 2.46. For the same molecule, in series [2], the Ki was determined as 0.022 µM.

For the molecule `C[C@]1(F)C[C@]2(F)COC[C@]2(c2cc(NC(=O)c3ccc(Cl)cn3)ccc2F)N=C1N` [Example 6, N-(3-((3S,4aR,7aS)-2-amino-3,4a-difluoro-3-methyl-3,4,4a,5,7,7a-hexahydrofuro[3,4-b]pyridin-7a-yl)-4-fluorophenyl)-5-chloropicolinamide], the efflux ratio at 60 min, 0.5 μM in series [1] was 1.01. In series [2], the Ki turned out to be 0.0064 µM.

For `[2H]C([2H])([2H])Oc1ccc(C(=O)Nc2ccc(F)c([C@]34COC[C@@]3(F)C[C@](C)(F)C(N)=N4)c2)nc1` [Example 1, N-(3-((3S,4aR,7aS)-2-amino-3,4a-difluoro-3-methyl-3,4,4a,5-tetrahydrofuro[3,4-b]pyridin-7a-yl)-4-fluorophenyl)-5-(methoxy-d3)picolinamide], the Aβ40 reduction in series [3] (Brain, 10 mg/kg p.o.) is 34%; in series [3] (Brain, 30 mg/kg p.o.), 54%; in series [3] (Plasma, 10 mg/kg p.o.), 38%; in series [3] (Plasma, 30 mg/kg p.o.) it was 52%. Also, the concentration at 3 h worked out at 194 ng/g in series [4] (Brain, 10 mg/kg p.o.); 951 ng/g in series [4] (Brain, 30 mg/kg p.o.); 184 ng/g in series [4] (Plasma, 10 mg/kg p.o.); 634 ng/g in series [4] (Plasma, 30 mg/kg p.o.). Besides, the Kp at 3 h in series [4] (10 mg/kg p.o.) amounted to 1.06; in series [4] (30 mg/kg p.o.) it was 1.5.

With `C[C@@]1(F)C[C@]2(F)COC[C@]2(c2cc(NC(=O)c3ccc(Cl)cn3)ccc2F)N=C1N` [Example 14, N-(3-((3R,4aR,7aS)-2-amino-3,4a-difluoro-3-methyl-3,4,4a,5,7,7a-hexahydrofuro[3,4-b]pyridin-7a-yl)-4-fluorophenyl)-5-chloropicolinamide], the efflux ratio at 60 min, 0.5 μM in series [1] was determined as 0.91. The molecule further gave a Ki in series [2] of 0.0093 µM.

As to `C[C@@]1(F)C[C@]2(F)COC[C@]2(c2cc(NC(=O)c3cnc(C(F)F)cn3)ccc2F)N=C1N` [Example 8, N-(3-((3R,4aR,7aS)-2-amino-3,4a-difluoro-3-methyl-3,4,4a,5,7,7a-hexahydrofuro[3,4-b]pyridin-7a-yl)-4-fluorophenyl)-5-(difluoromethyl)pyrazine-2-carboxamide], the efflux ratio at 60 min, 0.5 μM in series [1] turned out to be 1.23. The molecule also registered a Ki in series [2] of 0.014 µM.

In turn, `COc1ccc(C(=O)Nc2cc(F)c(F)c([C@]34COC[C@H]3C[C@@](F)(CF)C(N)=N4)c2)nc1` [Example 25, N-[3-[(3S,4aS,7aS)-2-amino-3-fluoro-3-(fluoromethyl)-4,4a,5,7-tetrahydrofuro[3,4-b]pyridin-7a-yl]-4,5-difluoro-phenyl]-5-methoxy-pyridine-2-carboxamide] had a Ki in series [2] of 0.23 µM.

In series [2], `NC1=N[C@@]2(c3cc(NC(=O)c4ccc(F)cn4)cc(F)c3F)COC[C@H]2C[C@]1(F)CF` [Example 19, N-[3-[(3R,4aS,7aS)-2-amino-3-fluoro-3-(fluoromethyl)-4,4a,5,7-tetrahydrofuro[3,4-b]pyridin-7a-yl]-4,5-difluoro-phenyl]-5-fluoro-pyridine-2-carboxamide] registered a Ki of 0.34 µM.

Turning to `C[C@]1(F)C[C@]2(F)COC[C@]2(c2cc(NC(=O)c3cnc(C(F)F)cn3)ccc2F)N=C1N` [Example 3, N-(3-((3S,4aR,7aS)-2-amino-3,4a-difluoro-3-methyl-3,4,4a,5,7,7a-hexahydrofuro[3,4-b]pyridin-7a-yl)-4-fluorophenyl)-5-(difluoromethyl)pyrazine-2-carboxamide], the efflux ratio at 60 min, 0.5 μM in series [1] is 0.96. Besides, the Ki in series [2] was 0.048 µM.

As to `[2H]C([2H])([2H])Oc1cnc(C(=O)Nc2ccc(F)c([C@]34COC[C@@]3(F)C[C@@](C)(F)C(N)=N4)c2)cn1` [Example 13, N-(3-((3R,4aR,7aS)-2-amino-3,4a-difluoro-3-methyl-3,4,4a,5-tetrahydrofuro[3,4-b]pyridin-7a-yl)-4-fluorophenyl)-5-(methoxy-d3)pyrazine-2-carboxamide], the Ki in series [2] is 0.029 µM.

Take `Cc1csc(C(=O)Nc2ccc(F)c([C@]34COC[C@@]3(F)C[C@@](C)(F)C(N)=N4)c2)n1` [Example 9, N-(3-((3R,4aR,7aS)-2-amino-3,4a-difluoro-3-methyl-3,4,4a,5,7,7a-hexahydrofuro[3,4-b]pyridin-7a-yl)-4-fluorophenyl)-4-methylthiazole-2-carboxamide]: the efflux ratio at 60 min, 0.5 μM in series [1] came to 1.33. This molecule registered a Ki in series [2] of 0.023 µM.
